Assay results reported in patent US20230110378A1, “MONOBACTAM COMPOUND AND USE THEREOF” (EVOPOINT BIOSCIENCES CO., LTD., priority 2019, published 2023).
In brackets after ≈: the same amount, converted by molar mass.

Key:
[1] = test system: Enterobacter cloacae HDBECL 30030; test: Minimum inhibitory concentration (broth microdilution, CLSI); type: cell-based; conditions: HDBECL30030
Experimental: (§1) 103 bacterial strains used for the minimum inhibitory concentration test were frozen in a −80° C. ULT freezer and thawed 2 days before use. A small amount of frozen microorganism bacteria were scraped using a sterile inoculating loop, streaked onto a suitable solid culture dish for inoculation, and then cultured for about 20 h at 35 t 2° C. in a normal incubator. • Proteus mirabilis HDBPM 40: MA, normal atmospheric environment • The remaining 102 strains of bacteria: TSA, normal atmospheric environment
(§2) 5-10 colonies with similar morphology were picked from the culture dish using a sterile inoculating loop and then re-streaked onto a corresponding solid culture dish. Then the dish was incubated in a normal incubator at 35 t 2° C. for about 20 h.
(§3) 5-10 single microbial colonies were picked from the solid culture dish, resuspended in 500 μL of sterile normal saline (0.9% NaCl), and adjusted to an OD600 of about 0.15 with a spectrophotometer.
(§4) The bacteria were then diluted 300-fold with 1.02×CAMHB to an inoculation concentration of 2×10^5 CFU/mL.
(§5) • There were a total of 3 assay plate patterns, one of which was used for each assay. • 8 rows of the assay plate (rows A-H) were for 8 test compounds, respectively. The highest test concentration of the compounds was 16, 32 or 64 μg/mL, and each compound was diluted 2-fold. • Growth control (GC): a medium containing microbial inoculum (1.02×CAMHB) and dimethylsulfoxide (DMSO) but no compound.
(§6) The test and reference compounds were dissolved in DMSO or H2O to prepare 6.4 mg/mL stock solutions. The stock solutions were diluted to prepare standby solutions with certain concentrations, and the volumes of the standby solutions were determined according to the experimental design. Corresponding volumes of the standby solutions were transferred to the starting wells of a dilution plate (A1-H1), and half the starting-well volume of DMSO to the other wells. Each compound was diluted 2-fold sequentially from column 1 to column 11 (e.g., transferring 30 μL of DMSO to columns 2-12 first, then pipetting 30 μL of the compounds from column 1 to column 2 and mixing them well, then pipetting 30 μL of the compounds from column 2 to column 3 and mixing them well, then pipetting 30 μL of the compounds from column 3 to column 4 and mixing them well, and so on to column 11).
(§7) 1 or 2 μL of the compounds and DMSO were transferred from the compound plate to corresponding wells of the assay plates.
(§8) 98 μL of corresponding bacterial inocula were added to the assay plates.
(§9) After addition, the assay plates were covered with sterile covers. The mixtures in the assay plates were centrifuged in a centrifuge at 800 rpm for 30 s, mixed well on a microplate shaker at 400 rpm for 1 min, and incubated in a normal incubator at 35 t 2° C. for 20-24 h.
(§10) The assay plates were placed on a plate reading device, and the speculum was adjusted to observe and record the growth condition of bacteria in each well. In the mean time, each assay plate was photographed with QCount system.
(§11) The minimum inhibitory concentration of each compound was recorded by reference to guidelines from the Clinical and Laboratory Standards Institute.
(§12) The minimum inhibitory concentrations of the compounds against experimental strains were tested in this study by reference to the medium microdilution method as indicated by the Clinical and Laboratory Standards Institute. Compounds were diluted two-fold in 96-well plates from the highest detection concentration of 16, 32 or 64 μg/mL. The bacterial inocula in the assay plates were thawed from corresponding medium plates and diluted in 1.02×CAMHB, while growth controls (GC wells) were set up in the assay plates. The minimum inhibitory concentration of each compound against different bacteria was observed and recorded after the assay plates were incubated in a normal incubator at 35 t 2° C. for about 20 h. The minimum inhibitory concentration values for the different compounds are listed in the list below.

[2] = test system: Escherichia coli HDBEC 30008; test: as above; type: cell-based; conditions: HDBEC30008
Experimental: as §1, §2, §3, §4, §5, §6, §7, §8, §9, §10, §11, §12

[3] = test system: Escherichia coli HDBEC 30016; test: as above; type: cell-based; conditions: HDBEC30016
Experimental: as §1, §2, §3, §4, §5, §6, §7, §8, §9, §10, §11, §12

[4] = test system: Escherichia coli HDBEC 30048; test: as above; type: cell-based; conditions: HDBEC30048
Experimental: as §1, §2, §3, §4, §5, §6, §7, §8, §9, §10, §11, §12

[5] = test system: Klebsiella pneumoniae HDBKP 30006; test: as above; type: cell-based; conditions: HDBKP30006
Experimental: as §1, §2, §3, §4, §5, §6, §7, §8, §9, §10, §11, §12

[6] = test system: Klebsiella pneumoniae HDBKP 9153; test: as above; type: cell-based; conditions: HDBKP9153
Experimental: as §1, §2, §3, §4, §5, §6, §7, §8, §9, §10, §11, §12

[7] = test system: Klebsiella pneumoniae HDBKP 9249; test: as above; type: cell-based; conditions: HDBKP9249
Experimental: as §1, §2, §3, §4, §5, §6, §7, §8, §9, §10, §11, §12

[8] = test system: Proteus mirabilis HDBPM 40; test: as above; type: cell-based; conditions: HDBPM40
Experimental: as §1, §2, §3, §4, §5, §6, §7, §8, §9, §10, §11, §12

[9] = test system: Pseudomonas aeruginosa HDBPA 5679; test: as above; type: cell-based; conditions: HDBPA5679
Experimental: as §1, §2, §3, §4, §5, §6, §7, §8, §9, §10, §11, §12

[10] = Pharmacokinetic evaluation of compounds in mice (tail vein injection); type: in vivo, Male CD-1 (ICR) mice; conditions: CD-1 (ICR), mouse, male CD-1 mice, intravenous injection, dose 10 mg/kg, plasma; for half-life: read-out: T½ (converted); for Vd: read-out: Vss
Experimental: Male CD-1 (ICR) mice were purchased and then acclimatized in this laboratory for at least 3 days. […] Blood samples were collected from the saphenous vein at 0.0833 h, 0.25 h, 0.5 h, 1 h, 2 h, 4 h, 8 h and 24 h following the tail vein injection administration. The volume of blood collection at each time point of the blood collection was about 30 μL. The blood samples were placed in centrifuge tubes containing anticoagulant EDTA-K2 and centrifuged at 3,200 g at 4° C. for 10 min, and then the upper plasma samples were collected and preserved in a freezer at −70±10° C. for later tests.
1) To 1.5 mL centrifuge tubes were added a 6 μL aliquot of an unknown sample, a standard curve, a quality control, a dilution quality control, single blank and double blank samples.
2) Each sample (except for the double blank sample) was treated with 120 μL of IS1-containing precipitant (the double blank sample was treated with 120 μL of pure MeOH for precipitation), and the mixtures were well mixed (for at least 15 s) using a vortexer and centrifuged at 12,000 g at 4° C. for 15 min.
3) 60 μL of the supernatants were transferred to a 96-well plate and centrifuged at 4° C. at 3220 g for 5 min, and 6 p L of the supernatants were injected for LC-MS/MS quantitative analysis.
1) The 1 h-plasma samples from the 3 mice were diluted 10-fold: 2 p L of the samples were added to 18 p L of blank matrix.
2) The 0.0833 h to 0.5 h-plasma samples from the 3 mice were diluted 100-fold: 18 μL of blank matrix was added to 2 p L of the samples to obtain 10-fold diluted samples. 2 μL of the 10-fold diluted samples were added to 18 p L of blank matrix to obtain 100-fold diluted analysis samples.
LC-MS/MS analysis conditions: chromatography column: ACQUITY UPLC HSS T3 (2.1×50 mm, 1.8 μm); column temperature: 50° C.; mobile phase A: a 0.1% aqueous solution of formic acid; mobile phase B: a 0.1% solution of formic acid in acetonitrile; flowrate: 0.65 mL/min. Internal standard: verapamil (100 ng/mL)
The concentration of the compounds in plasma was measured by LC-MS/MS (LC-MS/MS-AK_Q-Trap 6500). The pharmacokinetic software WinNonlin [version: Phoenix™ WinNonlin®6.3, manufacturer: Pharsight Corporation] was used to calculate pharmacokinetic parameters (V-Noncompartmental model 201).

Structure (SMILES) | MIC [1] | MIC [2] | MIC [3] | MIC [4] | MIC [5] | MIC [6] | MIC [7] | MIC [8] | MIC [9] | AUC [10] | clearance [10] | half-life [10] | Vd [10]
C[n+]1cc(-c2ncc(C(=O)NC[C@@H]3[C@H](NC(=O)/C(=N\OC(C)(C)C(=O)O)c4csc(N)n4)C(=O)N3S(=O)(=O)O)s2)cn1CCCNC(=O)c1cc(=O)c(O)cn1O [Compound I-12] | < 4 µg/mL | < 4 µg/mL | < 4 µg/mL | < 4 µg/mL | 8 to 16 µg/mL | < 4 µg/mL | 4 to 8 µg/mL | < 4 µg/mL | < 4 µg/mL |  |  |  | 
CC(C)(O/N=C(\C(=O)N[C@@H]1C(=O)N(S(=O)(=O)O)[C@@H]1CNC(=O)c1cc([C@@H]2CCN(C(=O)c3ccc(O)c(O)c3F)C2)no1)c1csc(N)n1)C(=O)O [Compound I-8] | < 4 µg/mL | < 4 µg/mL | < 4 µg/mL | < 4 µg/mL | 4 to 8 µg/mL (≈ 5.2 to 10.4 µM) | < 4 µg/mL | 4 to 8 µg/mL (≈ 5.2 to 10.4 µM) | < 4 µg/mL | < 4 µg/mL |  |  |  | 
CC(C)(O/N=C(\C(=O)N[C@H]1C(=O)N(S(=O)(=O)O)[C@H]1CNC(=O)c1cc([C@@H]2CCN(C(=O)c3cc(=O)c(O)cn3O)C2)no1)c1csc(N)n1)C(=O)O [Compound I-21] | < 4 µg/mL | < 4 µg/mL | > 16 µg/mL | < 4 µg/mL | > 16 µg/mL | < 4 µg/mL | > 16 µg/mL | < 4 µg/mL | < 4 µg/mL |  |  |  | 
CC(C)(O/N=C(\C(=O)N[C@@H]1C(=O)N(S(=O)(=O)O)[C@@H]1CNC(=O)c1cnc(C2=CC(CCCNC(=O)c3ccc(O)c(O)c3Cl)N=C2)s1)c1csc(N)n1)C(=O)O (some centres unmarked) [Compound I-42] | < 4 µg/mL | < 4 µg/mL | < 4 µg/mL | < 4 µg/mL | < 4 µg/mL | < 4 µg/mL | 8 to 16 µg/mL (≈ 9.36 to 18.7 µM) | < 4 µg/mL | < 4 µg/mL |  |  |  | 
CC(C)(O/N=C(\C(=O)N[C@@H]1C(=O)N(S(=O)(=O)O)[C@@H]1CNC(=O)c1cnc([C@@H]2CC[N+](C)(CCNC(=O)c3ccc(O)c(O)c3Cl)C2)s1)c1csc(N)n1)C(=O)O (some centres unmarked) [Compound I-34] | < 4 µg/mL | < 4 µg/mL | < 4 µg/mL | < 4 µg/mL | 4 to 8 µg/mL | < 4 µg/mL | 8 to 16 µg/mL | < 4 µg/mL | < 4 µg/mL |  |  |  | 
CC(C)(O/N=C(\C(=O)N[C@@H]1C(=O)N(S(=O)(=O)O)[C@@H]1CNC(=O)c1cc([C@@H]2CCN(CCNC(=O)c3cc(=O)c(O)c[nH]3)C2)no1)c1csc(N)n1)C(=O)O [Compound I-39] | < 4 µg/mL | < 4 µg/mL | > 16 µg/mL | < 4 µg/mL | 8 to 16 µg/mL (≈ 10.1 to 20.1 µM) | < 4 µg/mL | 8 to 16 µg/mL (≈ 10.1 to 20.1 µM) | < 4 µg/mL | < 4 µg/mL |  |  |  | 

Second part, the compound after the results:

MIC [1] | MIC [2] | MIC [3] | MIC [4] | MIC [5] | MIC [6] | MIC [7] | MIC [8] | MIC [9] | AUC [10] | clearance [10] | half-life [10] | Vd [10] | Structure (SMILES)
< 4 µg/mL | < 4 µg/mL | < 4 µg/mL | < 4 µg/mL | < 4 µg/mL | < 4 µg/mL | 4 to 8 µg/mL (≈ 4.83 to 9.66 µM) | < 4 µg/mL | < 4 µg/mL | 8530 ng·h/mL | 19.5 mL/min/kg | 1.43 h | 0.57 L/kg | CC(C)(O/N=C(\C(=O)N[C@@H]1C(=O)N(S(=O)(=O)O)[C@@H]1CNC(=O)c1cc([C@@H]2CCN(CCNC(=O)c3ccc(O)c(O)c3Cl)C2)no1)c1csc(N)n1)C(=O)O [Compound I-35]
< 4 µg/mL | < 4 µg/mL | 4 to 8 µg/mL (≈ 5.03 to 10.1 µM) | < 4 µg/mL | 8 to 16 µg/mL (≈ 10.1 to 20.1 µM) | < 4 µg/mL | 8 to 16 µg/mL (≈ 10.1 to 20.1 µM) | < 4 µg/mL | < 4 µg/mL | 17300 ng·h/mL | 9.61 mL/min/kg | 0.63 h | 0.19 L/kg | Cc1c(C(=O)N2CC[C@@H](c3cc(C(=O)NC[C@@H]4[C@H](NC(=O)/C(=N\OC(C)(C)C(=O)O)c5csc(N)n5)C(=O)N4S(=O)(=O)O)on3)C2)n(O)c(C)c(O)c1=O [Compound I-44]
< 4 µg/mL | < 4 µg/mL | 8 to 16 µg/mL | < 4 µg/mL | 8 to 16 µg/mL | < 4 µg/mL | < 4 µg/mL | < 4 µg/mL | < 4 µg/mL |  |  |  |  | C[N+]1(CCNC(=O)c2ccc(O)c(O)c2Cl)CC[C@@H](c2cc(C(=O)NC[C@@H]3[C@H](NC(=O)/C(=N\OC4(C(=O)O)CC4)c4csc(N)n4)C(=O)N3S(=O)(=O)O)on2)C1 (some centres unmarked) [Compound I-24]
